# US10597390B2, “Indoles for use in influenza virus infection” (Janssen Sciences Ireland UC, priority 2014, dated 2020)
# Assays:
# [1] = test system: influenza virus A/Taiwan/1/86 (H1N1); test: organism not typed; format: cell-based; details: CPE in MDCK cells, three days post-virus exposure, ATPlite
# [2] = test system: MDCK cells; details: dog, 3 days
# [3] = in vitro; details: dog, TOX MDCK CC50
SMILES,IC50 [1],CC50 [2],"IC50 ([1]; MDCK, 72 h)",melting point,CC50 at 3 days [3]
N#Cc1cc(F)c(N[C@H]2C3CCC(CC3)[C@@H]2C(=O)O)nc1-c1c[nH]c2c(F)cc(F)cc12 (mixture of isomers) [Compound 216],2 nM,70 nM,–,–,–
O=C(N[C@@H]1CCC[C@H](Nc2nc(-c3c[nH]c4c(F)cc(Cl)cc34)ncc2F)C1)c1ccccn1 (racemic) [Compound 27],11 nM,9500 nM,–,–,–
Cc1cc(C(=O)N[C@@H]2CCC[C@H](Nc3nc(-c4c[nH]c5c(F)cc(F)cc45)ncc3F)C2)on1 (racemic) [Compound 91],21 nM,18600 nM,–,–,–
Cc1cc(C(=O)N[C@@H]2CCC[C@@H](Nc3nc(-c4c[nH]c5c(F)cc(F)cc45)c(C#N)cc3F)C2)on1 (racemic) [Compound 207],–,8000 nM,12 nM,285 °C,–
Cc1cc(C(=O)N[C@@H]2CCC[C@H](Nc3nc(-c4c[nH]c5c(F)cc(Cl)cc45)ncc3F)C2)on1 [Compound 44],15 nM,3500 nM,–,255.1 °C,–
Cc1cc(C(=O)N[C@@H]2CCC[C@H](Nc3nc(-c4c[nH]c5c(F)cc(F)cc45)ncc3F)C2)nn1C [Compound 129],8 nM,7500 nM,–,158 °C,–
Cc1cc(C(=O)N[C@@H]2CCC[C@H](Nc3nc(-c4c[nH]c5c(F)cc(F)cc45)ncc3F)C2)on1 [Compound 133],–,7500 nM,13 nM,278.5 °C,–
N#Cc1cc(F)c(N[C@@H]2CCC[C@H](NC(=O)N3CCCC3)C2)nc1-c1c[nH]c2c(F)cc(F)cc12 [Compound 163],720 nM,13200 nM,–,–,–
Cc1cc(F)c2[nH]cc(-c3ncc(F)c(N[C@H](CC(=O)O)C(C)(C)C)n3)c2c1 [Compound 168],–,–,> 25000 nM,132 °C,10300 nM
Cc1cc(F)c2[nH]cc(-c3ncc(F)c(N[C@@H](CC(=O)O)C(C)(C)C)n3)c2c1 [Compound 169],–,–,19 nM,144 °C,2300 nM
N#Cc1cc(F)c2[nH]cc(-c3ncc(F)c(N[C@H]4C5CCC(CC5)[C@@H]4C(=O)O)n3)c2c1 [Compound 171],–,–,6 nM,211.6 °C,700 nM
N#Cc1cc(F)c2[nH]cc(-c3ncc(F)c(N[C@H]4CCC[C@@H](NC(=O)c5c[nH]nn5)C4)n3)c2c1 [Compound 172],–,–,2 nM,> 300 °C,> 25000 nM
Cn1ccc(C(=O)N[C@@H]2CCC[C@@H](Nc3nc(-c4c[nH]c5c(F)cc(F)cc45)c(C#N)cc3F)C2)n1 [Compound 206],3 nM,> 25000 nM,–,–,–
N#Cc1cc(F)c(N[C@@H]2CCC[C@@H](NC(=O)c3ccccn3)C2)nc1-c1c[nH]c2c(F)cc(F)cc12 [Compound 209],–,–,3 nM,257 °C,> 25000 nM
Cc1cc(C(=O)N[C@@H]2CCC[C@H](Nc3nc(-c4c[nH]c5c(F)cc(F)cc45)c(C#N)cc3F)C2)nn1C [Compound 211],4 nM,> 25000 nM,–,235 °C,–
N#Cc1cc(F)c(N[C@@H]2CCC[C@H](NC(=O)[C@@H](O)c3ccccc3)C2)nc1-c1c[nH]c2c(F)cc(F)cc12 [Compound 214],–,–,670 nM,255 °C,2900 nM
N#Cc1cc(F)c(N[C@H]2C3CCC(CC3)[C@@H]2C(=O)O)nc1-c1c[nH]c2c(F)cc(F)cc12 [Compound 215],0.8 nM,150 nM,–,–,–
CC(C)(C)[C@H](CC(=O)O)Nc1nc(-c2c[nH]c3c(F)cc(F)cc23)c(C#N)cc1F [Compound 218],–,–,3 nM,> 280 °C,240 nM
Cc1cc(C(=O)N[C@@H]2CCC[C@@H](Nc3nc(-c4c[nH]c5c(F)cc(F)cc45)c(C#N)cc3F)C2)on1 [Compound 220],10 nM,3500 nM,–,–,–
O=C(O)c1cccnc1C(=O)N[C@@H]1CCC[C@H](Nc2nc(-c3c[nH]c4c(F)cc(F)cc34)ncc2F)C1 [Compound 225],–,–,9 nM,265.2 °C,> 5000 nM

SMILES,IC50 [1],CC50 [2],"IC50 ([1]; MDCK, 72 h)",melting point,CC50 at 3 days [3]
"CC(C)(c1cccs1)C(CC(=O)O)Nc1nc(-c2c[nH]c3c(F)cc(F)cc23)c(C#N)cc1F (centres unmarked) [Compound 229, 3-((5-cyano-6-(5,7-difluoro-1H-indol-3-yl)-3-fluoropyridin-2-yl)amino)-4-methyl-4-(thiophen-2-yl)pentanoic Acid]",–,–,18 nM,235.7 °C,200 nM
CC(C)(c1cccs1)[C@H](CC(=O)O)Nc1nc(-c2c[nH]c3c(F)cc(F)cc23)ncc1F [Compound 231],–,–,10 nM,271.1 °C,2600 nM
CC(C)(c1nccs1)C(CC(=O)O)Nc1nc(-c2c[nH]c3c(F)cc(F)cc23)c(C#N)cc1F (centres unmarked) [Compound 232],–,–,3 nM,223.6 °C,300 nM
Cc1cc(F)c2[nH]cc(-c3ncc(F)c(NC(CC(=O)O)C(C)(C)c4nccs4)n3)c2c1 (centres unmarked) [Compound 233],–,–,15 nM,237.2 °C,17300 nM
Cc1cc(F)c2[nH]cc(-c3ncc(F)c(NC(CC(=O)O)C(C)(C)c4ccn(C)n4)n3)c2c1 (centres unmarked) [Compound 234],–,–,460 nM,208.5 °C,> 25000 nM
Cc1cc(F)c2[nH]cc(-c3ncc(F)c(N[C@@H](CC(=O)O)C(C)(C)c4ccn(C)n4)n3)c2c1 [Compound 235],–,–,190 nM,> 260 °C,> 25000 nM
Cn1ccc(C(C)(C)C(CC(=O)O)Nc2nc(-c3c[nH]c4c(F)cc(F)cc34)c(C#N)cc2F)n1 (centres unmarked) [Compound 236],–,–,86 nM,246.9 °C,1500 nM
"CC(C)(c1ccccn1)C(CC(=O)O)Nc1nc(-c2c[nH]c3c(F)cc(F)cc23)c(C#N)cc1F (centres unmarked) [Compound 237, 3-((5-cyano-6-(5,7-difluoro-1H-indol-3-yl)-3-fluoropyridin-2-yl)amino)-4-methyl-4-(pyridin-2-yl)pentanoic Acid]",–,–,3 nM,230.8 °C,400 nM
Cc1cc(F)c2[nH]cc(-c3ncc(F)c(N[C@@H](CC(=O)O)C(C)(C)c4ccccn4)n3)c2c1 [Compound 239],–,–,10 nM,219 °C,15300 nM
"COC(C)(C)C(CC(=O)O)Nc1nc(-c2c[nH]c3c(F)cc(F)cc23)c(C#N)cc1F (centres unmarked) [Compound 240, 3-((5-cyano-6-(5,7-difluoro-1H-indol-3-yl)-3-fluoropyridin-2-yl)amino)-4-methoxy-4-methylpentanoic Acid]",–,–,47 nM,218.8 °C,900 nM
"C=CCC(C)(C)C(CC(=O)O)Nc1nc(-c2c[nH]c3c(F)cc(F)cc23)c(C#N)cc1F (centres unmarked) [Compound 241, 3-((5-cyano-6-(5,7-difluoro-1H-indol-3-yl)-3-fluoropyridin-2-yl)amino)-4,4-dimethylhept-6-enoic Acid]",–,–,12 nM,> 260 °C,50 nM
C=CCC(C)(C)[C@@H](CC(=O)O)Nc1nc(-c2c[nH]c3c(F)cc(C)cc23)ncc1F [Compound 243],–,–,46 nM,< 280 °C,600 nM
"CC1(C(CC(=O)O)Nc2nc(-c3c[nH]c4c(F)cc(F)cc34)c(C#N)cc2F)CCCC1 (centres unmarked) [Compound 244, 3-((5-cyano-6-(5,7-difluoro-1H-indol-3-yl)-3-fluoropyridin-2-yl)amino)-3-(1-methylcyclopentyl)propanoic Acid]",–,–,5 nM,150 °C,60 nM
CC1([C@@H](CC(=O)O)Nc2nc(-c3c[nH]c4c(F)cc(F)cc34)c(C#N)cc2F)CCCC1 [Compound 245],–,–,3 nM,289.6 °C,700 nM
CC1(C(CC(N)=O)Nc2nc(-c3c[nH]c4c(F)cc(F)cc34)c(C#N)cc2F)CCCC1 (centres unmarked) [Compound 246],–,–,610 nM,270.1 °C,6900 nM
CC(=O)NCc1cc(F)c(N[C@@H]2CCC[C@H](NC(=O)N3CCCC3)C2)nc1-c1c[nH]c2c(F)cc(F)cc12 [Compound 248],–,–,50 nM,< 260 °C,> 25000 nM
CN(C)C(=O)C(C)(C)C(CC(=O)O)Nc1nc(-c2c[nH]c3c(F)cc(F)cc23)ncc1F (centres unmarked) [Compound 251],–,–,150 nM,253 °C,> 25000 nM
"CC1(C(CC(=O)O)Nc2nc(-c3c[nH]c4c(F)cc(F)cc34)c(C#N)cc2F)CCOCC1 (centres unmarked) [Compound 255, 3-((5-cyano-6-(5,7-difluoro-1H-indol-3-yl)-3-fluoropyridin-2-yl)amino)-3-(4-methyltetrahydro-2H-pyran-4-yl)propanoic Acid]",–,–,170 nM,151.1 °C,5300 nM
CC(=O)NCc1cc(F)c(N[C@H]2CCC[C@@H](NC(=O)c3cn(C)cn3)C2)nc1-c1c[nH]c2c(F)cc(F)cc12 [Compound 259],170 nM,> 25000 nM,–,> 260 °C,–
